Experimental data as given in PubChem BioAssay (NCI).
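Interpolation was linear, between the two tested concentrations surrounding the appropriate level; five concentrations were tested over 48 hours in 96-well plates. Abbreviation: GI50, concentration required for 50% inhibition of growth. The concentration for full growth arrest is given as TGI.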

Experiments:
Test in all cases: NCI tumour cell line growth inhibition, 48 h
786-0 renal = tested on: 786-0 renal
A498 renal = tested on: A498 renal
A549 NSCLC = tested on: A549 NSCLC
ACHN renal = tested on: ACHN renal
BT-549 breast = tested on: BT-549 breast
CAKI-1 renal = tested on: CAKI-1 renal
CCRF-CEM leukemia = tested on: CCRF-CEM leukemia
COLO 205 colon = tested on: COLO 205 colon
DU-145 prostate = tested on: DU-145 prostate
EKVX NSCLC = tested on: EKVX NSCLC
HCC-2998 colon = tested on: HCC-2998 colon
HCT-116 colon = tested on: HCT-116 colon
HCT-15 colon = tested on: HCT-15 colon
HL-60(TB) leukemia = tested on: HL-60(TB) leukemia
HOP-62 NSCLC = tested on: HOP-62 NSCLC
HOP-92 NSCLC = tested on: HOP-92 NSCLC
HS 578T breast = tested on: HS 578T breast
HT29 colon = tested on: HT29 colon
IGROV1 ovarian = tested on: IGROV1 ovarian
K-562 leukemia = tested on: K-562 leukemia
KM12 colon = tested on: KM12 colon
M14 melanoma = tested on: M14 melanoma
MCF7 breast = tested on: MCF7 breast
MDA-MB-231 breast = tested on: MDA-MB-231 breast
MDA-MB-435 = tested on: MDA-MB-435
MOLT-4 leukemia = tested on: MOLT-4 leukemia
NCI-H226 lung = tested on: NCI-H226 lung
NCI-H23 lung = tested on: NCI-H23 lung
NCI-H460 lung = tested on: NCI-H460 lung
NCI-H522 lung = tested on: NCI-H522 lung
NCI/ADR-RES ovarian = tested on: NCI/ADR-RES ovarian
OVCAR-4 ovarian = tested on: OVCAR-4 ovarian
OVCAR-5 ovarian = tested on: OVCAR-5 ovarian
OVCAR-8 ovarian = tested on: OVCAR-8 ovarian
PC-3 prostate = tested on: PC-3 prostate
RPMI-8226 leukemia = tested on: RPMI-8226 leukemia
RXF 393 renal = tested on: RXF 393 renal
SF-268 CNS = tested on: SF-268 CNS
SF-539 CNS = tested on: SF-539 CNS
SK-MEL-2 melanoma = tested on: SK-MEL-2 melanoma
SK-MEL-28 melanoma = tested on: SK-MEL-28 melanoma
SK-MEL-5 melanoma = tested on: SK-MEL-5 melanoma
SK-OV-3 ovarian = tested on: SK-OV-3 ovarian
SN12C renal = tested on: SN12C renal
SNB-19 CNS = tested on: SNB-19 CNS
SR leukemia = tested on: SR leukemia
SW-620 colon = tested on: SW-620 colon
T-47D breast = tested on: T-47D breast
U251 CNS = tested on: U251 CNS
UACC-257 melanoma = tested on: UACC-257 melanoma
UACC-62 melanoma = tested on: UACC-62 melanoma
UO-31 renal = tested on: UO-31 renal

## Nc1ccc(-c2nnc(SCc3ccc(O)c4ncccc34)n2-c2ccccc2)cc1
786-0 renal
  GI50: 238 nM
  TGI: > 100000 nM
A498 renal
  GI50: 933 nM
  TGI: > 24600 nM
A549 NSCLC
  GI50: 40.3 nM
  TGI: > 100000 nM
ACHN renal
  GI50: 63.9 nM
BT-549 breast
  GI50: 29.1 nM
  TGI: > 100000 nM
CAKI-1 renal
  GI50: 62.7 nM
  TGI: > 100000 nM
CCRF-CEM leukemia
  GI50: 36.8 nM
  TGI: > 100000 nM
COLO 205 colon
  GI50: 1010 nM
  TGI: 3420 nM
DU-145 prostate
  GI50: 33.9 nM
  TGI: > 100000 nM
EKVX NSCLC
  GI50: 415 nM
  TGI: > 100000 nM
HCC-2998 colon
  GI50: 58.3 nM
  TGI: > 100000 nM
HCT-116 colon
  GI50: < 17.2 nM
  TGI: > 37400 nM
HCT-15 colon
  GI50: 49.8 nM
  TGI: > 100000 nM
HL-60(TB) leukemia
  GI50: 40.5 nM
  TGI: > 100000 nM
HOP-62 NSCLC
  GI50: 66.1 nM
  TGI: > 100000 nM
HOP-92 NSCLC
  TGI: 20.3 nM
HS 578T breast
  GI50: 47.8 nM
  TGI: > 100000 nM
HT29 colon
  GI50: 890 nM
  TGI: > 100000 nM
IGROV1 ovarian
  GI50: 49.7 nM
  TGI: > 100000 nM
K-562 leukemia
  GI50: 15.2 nM
  TGI: > 100000 nM
KM12 colon
  GI50: 50.4 nM
  TGI: > 100000 nM
M14 melanoma
  GI50: 40.2 nM
  TGI: 4300 nM
MCF7 breast
  GI50: 28.7 nM
  TGI: > 100000 nM
MDA-MB-231 breast
  GI50: 69.5 nM
  TGI: 98800 nM
MDA-MB-435
  GI50: 32.1 nM
  TGI: > 100000 nM
MOLT-4 leukemia
  GI50: 48.5 nM
  TGI: > 100000 nM
NCI-H226 lung
  GI50: 1150 nM
  TGI: > 100000 nM
NCI-H23 lung
  GI50: 32.2 nM
  TGI: > 100000 nM
NCI-H460 lung
  GI50: 19 nM
  TGI: > 33000 nM
NCI-H522 lung
  GI50: 26.8 nM
  TGI: 6810 nM
NCI/ADR-RES ovarian
  GI50: 2290 nM
  TGI: > 100000 nM
OVCAR-4 ovarian
  GI50: 68.8 nM
  TGI: > 100000 nM
OVCAR-5 ovarian
  GI50: 290 nM
  TGI: > 100000 nM
OVCAR-8 ovarian
  GI50: 38.7 nM
  TGI: > 100000 nM
PC-3 prostate
  GI50: 17 nM
  TGI: > 100000 nM
RPMI-8226 leukemia
  GI50: 24.4 nM
  TGI: > 100000 nM
RXF 393 renal
  GI50: 81.6 nM
  TGI: > 100000 nM
SF-268 CNS
  GI50: 45.2 nM
  TGI: > 100000 nM
SF-539 CNS
  GI50: 48 nM
  TGI: > 100000 nM
SK-MEL-2 melanoma
  GI50: 64.4 nM
  TGI: 4840 nM
SK-MEL-28 melanoma
  GI50: 72.4 nM
  TGI: > 100000 nM
SK-MEL-5 melanoma
  GI50: 25.2 nM
  TGI: 80.4 nM
SK-OV-3 ovarian
  GI50: 118 nM
  TGI: 911 nM
SN12C renal
  GI50: 31.8 nM
  TGI: > 100000 nM
SNB-19 CNS
  GI50: 32.3 nM
  TGI: > 100000 nM
SR leukemia
  GI50: 44.1 nM
  TGI: > 100000 nM
SW-620 colon
  GI50: 45.4 nM
  TGI: > 100000 nM
T-47D breast
  GI50: 73.5 nM
  TGI: > 100000 nM
U251 CNS
  GI50: 25.4 nM
  TGI: > 100000 nM
UACC-257 melanoma
  GI50: 62.2 nM
UACC-62 melanoma
  GI50: 65 nM
  TGI: 13200 nM
UO-31 renal
  GI50: 140 nM
  TGI: > 100000 nM
